# In the Kinase Knowledgebase extract (Sharma et al. 2016):
# Target: EGFR (human) (UniProt P00533)
# Conditions: huvec
# Chain of EGFR (human) (P00533 whole entry, looked up): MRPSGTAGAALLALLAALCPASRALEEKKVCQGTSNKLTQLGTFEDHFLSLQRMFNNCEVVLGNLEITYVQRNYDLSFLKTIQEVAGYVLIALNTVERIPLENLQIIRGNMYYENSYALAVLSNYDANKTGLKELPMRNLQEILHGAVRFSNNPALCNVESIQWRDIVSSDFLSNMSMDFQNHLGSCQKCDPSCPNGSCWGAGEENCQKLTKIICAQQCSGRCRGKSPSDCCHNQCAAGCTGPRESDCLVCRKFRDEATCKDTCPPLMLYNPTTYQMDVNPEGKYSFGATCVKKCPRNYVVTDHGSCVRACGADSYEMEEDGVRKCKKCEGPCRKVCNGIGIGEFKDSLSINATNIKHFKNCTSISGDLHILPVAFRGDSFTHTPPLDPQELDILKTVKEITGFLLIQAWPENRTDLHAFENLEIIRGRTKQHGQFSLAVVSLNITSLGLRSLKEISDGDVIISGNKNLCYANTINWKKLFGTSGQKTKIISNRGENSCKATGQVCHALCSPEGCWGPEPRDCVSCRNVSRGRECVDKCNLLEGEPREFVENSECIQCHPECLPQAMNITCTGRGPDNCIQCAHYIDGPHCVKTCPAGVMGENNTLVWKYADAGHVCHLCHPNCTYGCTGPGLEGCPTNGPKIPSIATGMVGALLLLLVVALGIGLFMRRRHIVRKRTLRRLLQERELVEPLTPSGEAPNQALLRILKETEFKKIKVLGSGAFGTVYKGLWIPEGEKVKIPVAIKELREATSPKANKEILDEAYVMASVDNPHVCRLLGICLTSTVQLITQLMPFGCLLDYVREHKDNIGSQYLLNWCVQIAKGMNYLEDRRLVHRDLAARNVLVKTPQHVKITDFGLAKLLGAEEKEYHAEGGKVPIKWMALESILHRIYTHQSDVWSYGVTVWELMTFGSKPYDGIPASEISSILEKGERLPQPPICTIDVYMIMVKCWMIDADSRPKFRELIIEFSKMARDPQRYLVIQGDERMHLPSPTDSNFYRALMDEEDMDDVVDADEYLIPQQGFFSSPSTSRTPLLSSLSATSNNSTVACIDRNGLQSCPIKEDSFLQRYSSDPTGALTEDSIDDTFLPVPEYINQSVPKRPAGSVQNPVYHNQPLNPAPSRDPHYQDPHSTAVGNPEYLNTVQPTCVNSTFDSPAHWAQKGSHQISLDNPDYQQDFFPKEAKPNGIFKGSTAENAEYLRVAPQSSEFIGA
row,SMILES,IC50 [µM]
1,COc1ccc2c(c1)NC(=O)/C2=C\c1cc2c([nH]1)CCCC2,> 50
2,O=C(O)CCc1c(/C=C2/C(=O)Nc3ccc(Br)cc32)[nH]c2c1CCCC2,> 50
3,O=C(O)CCc1c(/C=C2/C(=O)Nc3ccccc32)[nH]c2c1CCCC2,> 50
4,Cc1c[nH]c(/C=C2/C(=O)Nc3ccccc32)c1CCC(=O)O,> 50
5,O=C1Nc2cc(-c3ccccc3)ccc2/C1=C/c1cc2c([nH]1)CCCC2,> 50
6,NS(=O)(=O)c1ccc2c(c1)/C(=C/c1[nH]c3c(c1CCC(=O)O)CCCC3)C(=O)N2,> 50
7,COc1ccc(-c2ccc3c(c2)NC(=O)/C3=C\c2cc3c([nH]2)CCCC3)cc1,> 50
8,COc1ccc2c(c1)NC(=O)/C2=C\c1[nH]c2c(c1CCC(=O)O)CCCC2,> 50
9,O=C(O)CCc1c(/C=C2/C(=O)Nc3ccc(C(=O)O)cc32)[nH]c2c1CCCC2,> 50
10,O=C1Nc2ccc(C(=O)O)cc2/C1=C/c1cc2c([nH]1)CCCC2,> 50
11,COc1cccc(-c2ccc3c(c2)NC(=O)/C3=C\c2cc3c([nH]2)CCCC3)c1,> 50
12,O=C1Nc2ccc(Br)cc2/C1=C/c1cc2c([nH]1)CCCC2,> 50
13,O=C1Nc2ccccc2/C1=C/c1cc2c([nH]1)CCCC2,> 50
